What was measured:
FGFR2 V564F = FGFR2 V564F (Homo sapiens (Human), UniProt P21802, V564F); experiment: TR-FRET kinase inhibition assay, FGFR2 V564F; type: biochemical; settings: ATP Km concentration (20 μM)
Procedure: (§1) To measure the IC50 values of the compounds against FGFR1, FGFR2, FGFR3, FGFR4, and FGFR2 V564F at ATP Km concentrations by TR-FRET method.
(§2) TR-FRET (time-resolved fluorescence resonance energy transfer) method was used to detect the inhibitory activity of the compounds on FGFR1, FGFR2, FGFR3, FGFR4, and FGFR2 V564F kinase region fragments. The highest detection concentration of the compounds in 5 kinase experiments was 1000 nM, which was diluted in 3 folds, with a total of 11 concentrations (1000 nM to 0.017 nM). A kinase buffer (50 mM HEPES pH 7.5, 1 mM EGTA, 10 mM MgCl2, 2 mM DTT, and 0.01% Tween-20) was used to prepare 4× enzyme solution, 4× compound solutions diluted in gradient, and a 2×ATP/Peptide substrate solution. To a 384-well plate, 2.5 μL of enzyme solution and 2.5 μL of diluted […] compound solution were added, and 5 μL of 2×ATP/Peptide substrate solution was then added. After reacting at room temperature for 60 minutes for FGFR1, FGFR2, FGFR3, and FGFR2 V564F kinases, and 120 minutes for FGFR4 kinase, 10 μL of a 2× termination and detection mixed liquid prepared with 1×LANCE detection buffer with an EDTA concentration of 20 mM and a Europium-anti-phosphotyrosine (PT66) concentration of 2 nM was added to each well of the plate. After reacting at room temperature for 60 minutes for FGFR1, FGFR2, FGFR3, and FGFR4, and 30 minutes for FGFR2 V564F, the fluorescence signal value in each well of the plate was measured by a microplate reader.
(§3) 1) Inhibition rate (%): Calculation was performed on the raw data (665 nm/620 nm reading ratio) according to the following formula to obtain the inhibition rate. Inhibition rate %=[(mean value in positive control well−value in sample well)/(mean value in positive control well−mean value in negative control well)]×100, wherein the positive control well was a reaction well without a compound […], and the negative control well was a reaction wells without an enzyme.
(§4) 2) Curve fitting: Log(inhibitor) vs. response—Variable slope (four parameters) in GraphPad Prism 6 was used for fitting equation analysis of the compound concentration and the corresponding inhibition rate, and the curve was fitted to obtain the IC50 values of the compounds.

FGFR1 = FGFR1 (Homo sapiens (Human), UniProt P11362); experiment: TR-FRET kinase inhibition assay, FGFR1; type: biochemical; settings: ATP Km concentration (30 μM)
Procedure: as §1, §2, §3, §4

FGFR2 = FGFR2 (Homo sapiens (Human), UniProt P21802); experiment: TR-FRET kinase inhibition assay, FGFR2; type: biochemical; settings: ATP Km concentration (30 μM)
Procedure: as §1, §2, §3, §4

NCI-H716 cells = experiment: CellTiter-Glo cell proliferation inhibition, NCI-H716; type: cell-based; settings: Homo sapiens, 72 h, read-out: NCI-H716 cell proliferation inhibition rate IC50
Procedure: (§5) To evaluate inhibitory effects of the compounds on the proliferation of NCI-H716, SNU-16 and BaF3-FGFR2-BICC1 V564F cells by cell proliferation inhibition experiments.
(§6) CellTiter-Glo method was used to detect inhibitory effects of the compounds on the proliferation of NCI-H716, SNU-16 and BaF3 FGFR2-BICC1 V564F cells. The highest detection concentration of the compounds was 1000 nM, which was diluted in 3 folds, with a total of 9 concentrations (1000 nM to 0.15 nM). After the cells were plated at an appropriate density, compounds were added the next day and incubated for 72 h before detection using the […] detection kit.
as §3, with “(%):” for “(%): Calculation was performed on the raw data (665 nm/620 nm reading ratio) according to the following formula to obtain the inhibition rate.”
as §4

[1] = test system: BaF3 FGFR2-BICC1 V564F cells; experiment: CellTiter-Glo cell proliferation inhibition, BaF3 FGFR2-BICC1 V564F; type: cell-based; settings: Mus musculus, 72 h, read-out: BaF3 FGFR2-BICC1 V564F inhibitory activity IC50
Procedure: as §5, §6
as §3, with “(%):” for “(%): Calculation was performed on the raw data (665 nm/620 nm reading ratio) according to the following formula to obtain the inhibition rate.”
as §4

[2] = Pharmacokinetic experiment in SD rats after oral administration; type: in vivo; settings: 5 mg/kg, plasma
Procedure: To study the pharmacokinetic behavior of the compounds of the present invention in the rat body (plasma) after oral administration at a dose of 5 mg/kg using SD rats as test animals.
3 SD rats/group, male, from Shanghai Jiesijie Experimental Animal Co., Ltd., animal production license number (SCXK (Shanghai) 2013-0006 N0.311620400001794).
PO, 10% solutol HS15-0.5% CMC-Na was dissolved by ultrasound and prepared into a clear solution or homogeneous suspension.
3 SD rats/group, male; p.o. respectively at a dose of 5 mg/kg and an administration volume of 10 mL/kg after the […] were fasted overnight.
After oral administration to rats, at 0.25, 0.5, 1, 2, 4, 6, 8 and 24 hours, 0.2 mL of blood was collected from the jugular vein, placed in an EDTA-K2 test tube, centrifuged at 6000 rpm for 6 min at 4° C. to separate the plasma, which was stored at −80° C.
1) 100 μL of acetonitrile was added to 20 μL of plasma sample for pelleting, and it was mixed and centrifuged at 3500×g for 5-20 min.
2) The treated supernatant solution was taken and subjected to LC/MS/MS to analyze the concentrations of the test compounds. LC/MS/MS analysis instrument: AB Sciex API 4000 Qtrap.
• Liquid phase conditions: Shimadzu LC-20AD pump • Chromatographic column: Waters Xbridge C18 5 μm, 4.6×50 mm mobile phase: liquid A was 0.1% aqueous formic acid solution, and liquid B was methanol • Flow rate: 1.0 mL/min • Elution time: 0-4.0 min, the eluent was as follows: […]

FGFR2 V564F, sequence (P21802 481-770 V564F): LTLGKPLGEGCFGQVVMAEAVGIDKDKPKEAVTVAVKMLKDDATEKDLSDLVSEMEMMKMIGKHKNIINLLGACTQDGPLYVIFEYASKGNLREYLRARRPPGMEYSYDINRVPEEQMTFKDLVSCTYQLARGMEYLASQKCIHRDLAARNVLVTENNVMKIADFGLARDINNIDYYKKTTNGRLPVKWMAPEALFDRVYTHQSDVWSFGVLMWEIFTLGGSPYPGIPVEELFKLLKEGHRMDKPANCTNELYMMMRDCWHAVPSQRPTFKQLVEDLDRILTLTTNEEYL
FGFR1, sequence (P11362 478-767): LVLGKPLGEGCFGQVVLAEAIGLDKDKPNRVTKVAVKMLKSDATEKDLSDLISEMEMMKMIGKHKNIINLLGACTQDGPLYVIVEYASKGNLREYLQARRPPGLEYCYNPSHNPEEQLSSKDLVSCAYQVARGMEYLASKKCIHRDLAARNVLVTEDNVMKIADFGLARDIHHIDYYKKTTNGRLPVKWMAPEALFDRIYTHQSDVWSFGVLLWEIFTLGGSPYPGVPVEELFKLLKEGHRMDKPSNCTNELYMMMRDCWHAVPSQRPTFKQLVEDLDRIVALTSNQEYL
FGFR2, sequence (P21802 481-770): as the sequence (P21802 481-770 V564F) above, with F84V counted along it

Row | SMILES | IC50 (FGFR2 V564F) [nM] | IC50 (FGFR1) [nM] | IC50 (FGFR2) [nM] | IC50 (NCI-H716 cells) [nM] | IC50 [1] [nM] | AUC(0-t) ([2]; male, Sprague-Dawley (SD), rat, po, read-out: Area under the curve AUC0-t) [ng·h/mL] | AUC(0-inf) ([2]; male, Sprague-Dawley (SD), rat, po, read-out: Area under the curve AUC0-∞) [ng·h/mL] | half-life ([2]; male, Sprague-Dawley (SD), rat, po, read-out: Half-life t1/2 (converted)) [h] | MRT ([2]; male, Sprague-Dawley (SD), rat, po, read-out: Mean residence time MRT) [h] | Cmax ([2]; male, Sprague-Dawley (SD), rat, po, read-out: Plasma concentration Cmax) [ng/mL] | Time to peak tmax ([2]; p.o.) [h]
1 | C=CC(=O)N1CC[C@H](n2nc(C#Cc3ccc4cn(C)nc4c3)c3c(N)ncc(C(=O)CC)c32)C1 [Example 83, (S)-1-(3-(4-amino-3-((2-methyl-2H-indazol-6-yl)alkynyl)-7-propionyl-1H-pyrazolo[4,3-c]pyridin-1-yl)pyrrolidine-1-methyl)prop-2-en-1-one] | 0.3 | 1.7 | 0.3 | 0.82 | 0.7 | – | – | – | – | – | –
2 | C=CC(=O)N1CC[C@H](n2nc(C#Cc3cc4ncn(C5CC5)c4cc3Cl)c3c(N)ncc(C(=O)CC)c32)C1 [Example 45, (S)-1-(3-(4-amino-3-((6-chloro-1-cyclopropyl-1H-benzo[d]imidazol-5-yl)ethynyl)-7-propionyl-1H-pyrazolo[4,3-c]pyridin-1-yl)pyrrolidin-1-yl)prop-2-en-1-one] | 0.7 | – | – | 1.84 | 0.6 | 1440 | 1460 | 4.3 | 4.59 | 290 | 2
3 | C=CC(=O)N1CC[C@H](n2nc(C#Cc3ccc4csnc4c3)c3c(N)ncc(C(=O)C4CC4)c32)C1 [Example 91, (S)-1-(3-(4-amino-3-(benzo[c]isothiazole-6-ethynylene)-7-(cyclopropanecarbonyl)-1H-pyrazolo[4,3-c]pyridin-1-yl)pyrrolidine-1-methyl)prop-2-en-1-one] | 1.1 | 3.9 | 1 | 0.97 | 0.8 | – | – | – | – | – | –
4 | C=CC(=O)N1CC[C@H](n2nc(C#Cc3ccc4c(c3)ncn4CC)c3c(N)ncc(C(=O)C4CC4)c32)C1 [Example 58, (S)-1-(3-(4-amino-7-(cyclopropanecarbonyl)-3-((1-ethyl-1H-benzo[d]imidazol-5-yl)ethynyl)-1H-pyrazolo[4,3-c]pyridin-1-yl)pyrrolidin-1-yl)prop-2-en-1-one] | 0.5 | 3 | 1.2 | 1.94 | 0.4 | – | – | – | – | – | –
5 | C=CC(=O)N1CC[C@H](n2nc(C#Cc3cc4ncn(C)c4cc3Cl)c3c(N)ncc(C(=O)C4CC4)c32)C1 [Example 68, (S)-1-(3-(4-amino-3-((6-chloro-1-methyl-1H-benzo[d]imidazol-5-yl)ethynyl)-7-(cyclopropanecarbonyl)-1H-pyrazolo[4,3-c]pyridin-1-yl)pyrrolidin-1-yl)prop-2-en-1-one] | 0.3 | 2.4 | 1.4 | 1.42 | 0.5 | – | – | – | – | – | –
6 | C=CC(=O)N1CC[C@H](n2nc(C#Cc3ccn4ccnc4c3)c3c(N)ncc(C(=O)C4CC4)c32)C1 [Example 79, (S)-1-(3-(4-amino-7-(cyclopropanecarbonyl)-3-(imidazo[1,2-a]pyridine-7-ethynylene)-1H-pyrazolo[4,3-c]pyridin-1-yl)pyrrolidine-1-methyl)prop-2-en-1-one] | 0.4 | 4.5 | 0.7 | 1.2 | 1.1 | – | – | – | – | – | –
7 | C=CC(=O)N1CC[C@H](n2nc(C#Cc3cc4ncn(C)c4cc3F)c3c(N)ncc(C(C)=O)c32)C1 [Example 8, (S)-1-(3-(7-acetyl-4-amino-3-((6-fluoro-1-methyl-1H-benzo[d]imidazol-5-yl)ethynyl)-1H-pyrazolo[4,3-c]pyridin-1-yl)pyrrolidin-1-yl)prop-2-en-1-one] | – | – | – | 1.74 | 0.4 | – | – | – | – | – | –
8 | C=CC(=O)N1CC[C@H](n2nc(C#Cc3cc4ncn(C5CC5)c4cc3F)c3c(N)ncc(C(C)=O)c32)C1 [Example 7, (S)-1-(3-(7-acetyl-4-amino-3-((1-cyclopropyl-6-fluoro-1H-benzo[d]imidazol-5-yl)ethynyl)-1H-pyrazolo[4,3-c]pyridin-1-yl)pyrrolidin-1-yl)prop-2-en-1-one] | 0.3 | 1.3 | 1 | 1.26 | 0.9 | – | – | – | – | – | –
9 | C=CC(=O)N1CC[C@H](n2nc(C#Cc3ccc4csnc4c3)c3c(N)ncc(C(=O)CC)c32)C1 [Example 90, (S)-1-(3-(4-amino-3-(benzo[c]isothiazole-6-ethynylene)-7-propionyl-1H-pyrazolo[4,3-c]pyridin-1-yl)pyrrolidine-1-methyl)prop-2-en-1-one] | 3.1 | – | 1.6 | 0.98 | 3.2 | – | – | – | – | – | –
10 | C=CC(=O)N1CC[C@H](n2nc(C#Cc3ccc4csnc4c3)c3c(N)ncc(C(C)=O)c32)C1 [Example 89, (S)-1-(3-(7-acetyl-4-amino-3-(benzo[c]isothiazole-6-ethynylene)-1H-pyrazolo[4,3-c]pyridin-1-yl)pyrrolidine-1-methyl)prop-2-en-1-one] | 0.7 | 2.7 | 0.4 | 0.94 | 1.6 | – | – | – | – | – | –
11 | C=CC(=O)N1CC[C@H](n2nc(C#Cc3ccn4ccnc4c3)c3c(N)ncc(C(C)=O)c32)C1 [Example 77, (S)-1-(3-(7-acetyl-4-amino-3-(imidazo[1,2-a]pyridine-7-ethynylene)-1H-pyrazolo[4,3-c]pyridin-1-yl)pyrrolidine-1-methyl)prop-2-en-1-one] | 1.4 | – | 1.8 | 0.92 | 2.9 | – | – | – | – | – | –
12 | C=CC(=O)N1CC[C@H](n2nc(C#Cc3cc4ncn(CC)c4cc3F)c3c(N)ncc(C(C)=O)c32)C1 [Example 24, (S)-1-(3-(7-acetyl-4-amino-3-((1-ethyl-6-fluoro-1H-benzo[d]imidazol-5-yl)ethynyl)-1H-pyrazolo[4,3-c]pyridin-1-yl)pyrrolidin-1-yl)prop-2-en-1-one] | 0.4 | 3.6 | 0.7 | 2.09 | 0.8 | – | – | – | – | – | –
13 | C=CC(=O)N1CC[C@H](n2nc(C#Cc3cc4ncn(C)c4cc3F)c3c(N)ncc(-c4nccs4)c32)C1 [Example 9, (S)-1-(3-(4-amino-3-((6-fluoro-1-methyl-1H-benzo[d]imidazol-5-yl)ethynyl)-7-(thiazol-2-yl)-1H-pyrazolo[4,3-c]pyridin-1-yl)pyrrolidin-1-yl)prop-2-en-1-one] | 1 | – | 2.2 | 1.82 | 1.6 | – | – | – | – | – | –
